# Several values for one entry are separate records, joined by “and”; a condition that tells them apart may be missing. Identical values can stand only once.
# Tested on: 898857-211-R-J1-PDC complex spheroids, growth % test/control
# Assay: Anticancer human tumor 898857-211-R-J1-PDC patient-derived melanoma cell line growth inhibition [RAS]
# Settings: for viability, T/C: stronger effect = lower value
# Outline: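 Multi-cell-type spheroids: tumor cells plus HUVEC endothelial cells and mesenchymal stem cells. RAS-pathway inhibitors were combined with targeted agents, each dosed in half-log steps down from clinical Cmax, or from 10 microM when Cmax was unknown.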
# [1] = curve of first compound, second compound 0.000949 µM
# [2] = curve of first compound, second compound 0.003 µM
# [3] = curve of first compound, second compound 0.00949 µM
# [4] = curve of first compound, second compound 0.03 µM
# [5] = curve of first compound, second compound 0.0949 µM
# [6] = curve of first compound, second compound 0.3 µM
# [7] = second compound 0.000949 µM, first compound 0.0316 µM
# [8] = second compound 0.000949 µM, first compound 0.1 µM
# [9] = second compound 0.000949 µM, first compound 0.316 µM
# [10] = second compound 0.000949 µM, first compound 1 µM
# [11] = second compound 0.003 µM, first compound 0.0316 µM
# [12] = second compound 0.003 µM, first compound 0.1 µM
# [13] = second compound 0.003 µM, first compound 0.316 µM
# [14] = second compound 0.003 µM, first compound 1 µM
# [15] = second compound 0.00949 µM, first compound 0.0316 µM
# [16] = second compound 0.00949 µM, first compound 0.1 µM
# [17] = second compound 0.00949 µM, first compound 0.316 µM
# [18] = second compound 0.00949 µM, first compound 1 µM
# [19] = second compound 0.03 µM, first compound 0.0316 µM
# [20] = second compound 0.03 µM, first compound 0.1 µM
# [21] = second compound 0.03 µM, first compound 0.316 µM
# [22] = second compound 0.03 µM, first compound 1 µM
# [23] = second compound 0.0949 µM, first compound 0.0316 µM
# [24] = second compound 0.0949 µM, first compound 0.1 µM
# [25] = second compound 0.0949 µM, first compound 0.316 µM
# [26] = second compound 0.0949 µM, first compound 1 µM
# [27] = second compound 0.3 µM, first compound 0.0316 µM
# [28] = second compound 0.3 µM, first compound 0.1 µM
# [29] = second compound 0.3 µM, first compound 0.316 µM
# [30] = second compound 0.3 µM, first compound 1 µM
# 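Also: spheroids exposed to compound for seven days before readout.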
# 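For viability, T/C in this document: 100% = DMSO vehicle control wells.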
smiles,measurement,setting,value
CC(Nc1ccc2c(c1)OCCn1cc(N3C(=O)OCC3C(F)F)nc1-2)C(N)=O (stereo unspecified) + CCn1c(-c2cccnc2C(C)OC)c2c3cc(ccc31)N1CCOC(CC(NC(=O)C(C(C)C)N(C)C(=O)C3(F)CCN(C(=O)C#CC(C)(C)N(C)C)CC3)C(=O)N3CCCC(N3)C(=O)OCC(C)(C)C2)C1,IC50,[1],> 10 µM
same,IC50,[2],> 10 µM
same,IC50,[3],> 10 µM
same,IC50,[4],> 10 µM
same,IC50,[5],> 10 µM
same,IC50,[6],5.64 µM
same,"viability, T/C",[7],110%
same,"viability, T/C",[8],87%
same,"viability, T/C",[9],89.4%
same,"viability, T/C",[10],92.7%
same,"viability, T/C","second compound 0.000949 µM, first compound 3.16 µM",89.3%
same,"viability, T/C","second compound 0.000949 µM, first compound 10 µM",65.8%
same,"viability, T/C",[11],105%
same,"viability, T/C",[12],103%
same,"viability, T/C",[13],97.4%
same,"viability, T/C",[14],104%
same,"viability, T/C","second compound 0.003 µM, first compound 3.16 µM",96.7%
same,"viability, T/C","second compound 0.003 µM, first compound 10 µM",63.2%
same,"viability, T/C",[15],94.9%
same,"viability, T/C",[16],104%
same,"viability, T/C",[17],92.8%
same,"viability, T/C",[18],103%
same,"viability, T/C","second compound 0.00949 µM, first compound 3.16 µM",78.7%
same,"viability, T/C","second compound 0.00949 µM, first compound 10 µM",66.4%
same,"viability, T/C",[19],89.8%
same,"viability, T/C",[20],98.3%
same,"viability, T/C",[21],98.2%
same,"viability, T/C",[22],95.4%
same,"viability, T/C","second compound 0.03 µM, first compound 3.16 µM",75.8%
same,"viability, T/C","second compound 0.03 µM, first compound 10 µM",58.8%
same,"viability, T/C",[23],103%
same,"viability, T/C",[24],98.7%
same,"viability, T/C",[25],91%
same,"viability, T/C",[26],83.8%
same,"viability, T/C","second compound 0.0949 µM, first compound 3.16 µM",63.1%
same,"viability, T/C","second compound 0.0949 µM, first compound 10 µM",53%
same,"viability, T/C",[27],73.9%
same,"viability, T/C",[28],74.7%
same,"viability, T/C",[29],68%
same,"viability, T/C",[30],69.5%
same,"viability, T/C","second compound 0.3 µM, first compound 3.16 µM",57.6%
same,"viability, T/C","second compound 0.3 µM, first compound 10 µM",41.8%
CCN1CCN(Cc2ccc(Nc3ncc(F)c(-c4cc(F)c5nc(C)n(C(C)C)c5c4)n3)nc2)CC1,"viability, T/C",compound 0.00316 µM,112% and 130% and 92.5%
same,"viability, T/C",compound 0.01 µM,92% (2×) and 103%
same,"viability, T/C",compound 0.0316 µM,97.3% and 96% and 83%
same,"viability, T/C",compound 0.1 µM,73.1% and 62.7% and 65.1%
same,"viability, T/C",compound 0.316 µM,51.2% and 51.1% and 55.3%
same,"viability, T/C",compound 1 µM,44.4% and 36% and 33.4%
same,IC50,curve of compound,0.444 µM and 0.323 µM and 0.37 µM
C=CC(=O)N1CCN(c2nc(OCC3CCCN3C)nc3c(F)c(-c4nc(N)cc(C)c4C(F)(F)F)c(Cl)cc23)C(C)C1 (stereo unspecified) + CCn1c(-c2cc(N3CCN(C)CC3)cnc2C(C)OC)c2c3cc(ccc31)-c1csc(n1)CC(NC(=O)C1CC1C)C(=O)N1CCCC(N1)C(=O)OCC(C)(C)C2,IC50,[1],> 1 µM
same,IC50,[2],> 1 µM
same,IC50,[3],> 1 µM
same,IC50,[4],> 1 µM
same,IC50,[5],> 1 µM
same,IC50,[6],> 1 µM
same,"viability, T/C","second compound 0.000949 µM, first compound 0.00316 µM",124%
same,"viability, T/C","second compound 0.000949 µM, first compound 0.01 µM",106%
same,"viability, T/C",[7],105%
same,"viability, T/C",[8],111%
same,"viability, T/C",[9],127%
same,"viability, T/C",[10],126%
same,"viability, T/C","second compound 0.003 µM, first compound 0.00316 µM",99.6%
same,"viability, T/C","second compound 0.003 µM, first compound 0.01 µM",104%
same,"viability, T/C",[11],116%
same,"viability, T/C",[12],101%
same,"viability, T/C",[13],114%
same,"viability, T/C",[14],108%
same,"viability, T/C","second compound 0.00949 µM, first compound 0.00316 µM",101%
same,"viability, T/C","second compound 0.00949 µM, first compound 0.01 µM",112%
same,"viability, T/C",[15],98.9%
same,"viability, T/C",[16],101%
same,"viability, T/C",[17],118%
same,"viability, T/C",[18],104%
same,"viability, T/C","second compound 0.03 µM, first compound 0.00316 µM",106%
same,"viability, T/C","second compound 0.03 µM, first compound 0.01 µM",112%
same,"viability, T/C",[19],103%
same,"viability, T/C",[20],121%
same,"viability, T/C",[21],110%
same,"viability, T/C",[22],110%
same,"viability, T/C","second compound 0.0949 µM, first compound 0.00316 µM",111%
same,"viability, T/C","second compound 0.0949 µM, first compound 0.01 µM",117%
same,"viability, T/C",[23],117%
same,"viability, T/C",[24],116%
same,"viability, T/C",[25],120%
same,"viability, T/C",[26],110%
same,"viability, T/C","second compound 0.3 µM, first compound 0.00316 µM",123%
same,"viability, T/C","second compound 0.3 µM, first compound 0.01 µM",111%
same,"viability, T/C",[27],100%
same,"viability, T/C",[28],116%
same,"viability, T/C",[29],111%
same,"viability, T/C",[30],99.7%

# — PubChem BioAssay AID2060882 (Molecular Pharmacology Branch, DTP, NCI, 2025)
